According to the NIST ThermoML archive (doi:10.1016/j.jct.2012.09.026):

Assay: xn = mol fraction of the nth substance listed
Conditions: Liquid

CC(C)(C)O [2-methylpropan-2-ol] + O
mass density [kg/m3]
Conditions | 278.15 K | 288.15 K | 298.15 K
101.3 kPa, Vibrating tube method, x1 = 0.0248 | 986.88 | 985.26 | 982.45
101.3 kPa, Vibrating tube method, x1 = 0.04241 | 981.87 | 978.77 | 974.54
101.3 kPa, Vibrating tube method, x1 = 0.05887 | 977 | 971.81 | 965.94
101.3 kPa, Vibrating tube method, x1 = 0.08929 | 963.35 | 956.03 | 949.01
101.3 kPa, Vibrating tube method, x1 = 0.1125 | 951.21 | 943.7 | 936.18
101.3 kPa, Vibrating tube method, x1 = 0.1566 | 929.91 | 922.09 | 914.18
101.3 kPa, Vibrating tube method, x1 = 0.208 | 910.57 | 902.66 | 894.55
101.3 kPa, Vibrating tube method, x1 = 0.3023 | 882.17 | 874 | 865.6
101.3 kPa, Vibrating tube method, x1 = 0.4045 | 860.22 | 851.78 | 843.11
101.3 kPa, Vibrating tube method, x1 = 0.4827 | 847.15 | 838.7 | 830.01
101.3 kPa, Vibrating tube method, x1 = 0.5344 | 839.61 | 830.98 | 822.05
101.3 kPa, Vibrating tube method, x1 = 0.6029 | 831.08 | 822.27 | 813.22
101.3 kPa, Vibrating tube method, x1 = 0.726 | 818.36 | 809.38 | 800.1
101.3 kPa, Vibrating tube method, x1 = 0.7999 | 812.56 | 803.46 | 794.07
101.3 kPa, Vibrating tube method, x1 = 0.8711 | – | 797.8 | 788.3
101.3 kPa, Vibrating tube method, x1 = 0.9183 | – | 794.66 | 785.07
101.3 kPa, Vibrating tube method, x1 = 0.9574 | – | – | 782.74
10000 kPa, Constant-volume piezometry, x1 = 0.0248 | 990.83 | 989.1 | 986.4
10000 kPa, Constant-volume piezometry, x1 = 0.04241 | 985.44 | 982.35 | 978.4
10000 kPa, Constant-volume piezometry, x1 = 0.05887 | 980.38 | 975.51 | 969.98
10000 kPa, Constant-volume piezometry, x1 = 0.08929 | 967.1 | 960.11 | 953.39
10000 kPa, Constant-volume piezometry, x1 = 0.1125 | 955.35 | 948.15 | 940.81
10000 kPa, Constant-volume piezometry, x1 = 0.1566 | 934.55 | 927.05 | 919.21
10000 kPa, Constant-volume piezometry, x1 = 0.208 | 915.88 | 908.09 | 899.99
10000 kPa, Constant-volume piezometry, x1 = 0.3023 | 888.19 | 880.07 | 871.71
10000 kPa, Constant-volume piezometry, x1 = 0.4045 | 866.8 | 858.48 | 849.93
10000 kPa, Constant-volume piezometry, x1 = 0.4827 | 854.18 | 845.78 | 837.26
10000 kPa, Constant-volume piezometry, x1 = 0.5344 | – | 838.32 | 829.58
10000 kPa, Constant-volume piezometry, x1 = 0.6029 | – | – | 821.11
25000 kPa, Constant-volume piezometry, x1 = 0.0248 | 996.63 | 994.94 | 992.33
25000 kPa, Constant-volume piezometry, x1 = 0.04241 | 990.81 | 987.9 | 984.21
25000 kPa, Constant-volume piezometry, x1 = 0.05887 | 985.66 | 981.16 | 975.95
25000 kPa, Constant-volume piezometry, x1 = 0.08929 | 972.88 | 966.27 | 959.85
25000 kPa, Constant-volume piezometry, x1 = 0.1125 | 961.59 | 954.74 | 947.61
25000 kPa, Constant-volume piezometry, x1 = 0.1566 | 941.34 | 934.17 | 926.51
25000 kPa, Constant-volume piezometry, x1 = 0.208 | 923.3 | 915.74 | 907.83
25000 kPa, Constant-volume piezometry, x1 = 0.3023 | 896.35 | 888.45 | 880.25
25000 kPa, Constant-volume piezometry, x1 = 0.4045 | 875.55 | 867.58 | 859.23
25000 kPa, Constant-volume piezometry, x1 = 0.4827 | 863.45 | 855.38 | 847.01
25000 kPa, Constant-volume piezometry, x1 = 0.5344 | – | 848.18 | 839.65
25000 kPa, Constant-volume piezometry, x1 = 0.6029 | – | – | 831.63
50000 kPa, Constant-volume piezometry, x1 = 0.0248 | 1005.84 | 1004.75 | 1002.03
50000 kPa, Constant-volume piezometry, x1 = 0.04241 | 999.56 | 997.38 | 993.67
50000 kPa, Constant-volume piezometry, x1 = 0.05887 | 994.6 | 990.56 | 985.61
50000 kPa, Constant-volume piezometry, x1 = 0.08929 | 982.34 | 976.26 | 970.06
50000 kPa, Constant-volume piezometry, x1 = 0.1125 | 971.7 | 965.1 | 958.37
50000 kPa, Constant-volume piezometry, x1 = 0.1566 | 952.1 | 945.1 | 937.98
50000 kPa, Constant-volume piezometry, x1 = 0.208 | 934.42 | 927.25 | 920
50000 kPa, Constant-volume piezometry, x1 = 0.3023 | 908.07 | 900.8 | 893.22
50000 kPa, Constant-volume piezometry, x1 = 0.4045 | 887.79 | 880.62 | 872.83
50000 kPa, Constant-volume piezometry, x1 = 0.4827 | 876.1 | 869.2 | 861.18
50000 kPa, Constant-volume piezometry, x1 = 0.5344 | – | 862.25 | 854.14
50000 kPa, Constant-volume piezometry, x1 = 0.6029 | – | – | 846.6
75000 kPa, Constant-volume piezometry, x1 = 0.0248 | 1014.43 | 1014.19 | 1011.23
75000 kPa, Constant-volume piezometry, x1 = 0.04241 | 1007.73 | 1006.42 | 1002.58
75000 kPa, Constant-volume piezometry, x1 = 0.05887 | 1002.96 | 999.48 | 994.71
75000 kPa, Constant-volume piezometry, x1 = 0.08929 | 991.23 | 985.6 | 979.52
75000 kPa, Constant-volume piezometry, x1 = 0.1125 | 981 | 974.66 | 968.17
75000 kPa, Constant-volume piezometry, x1 = 0.1566 | 961.89 | 955.07 | 948.39
75000 kPa, Constant-volume piezometry, x1 = 0.208 | 944.32 | 937.59 | 930.82
75000 kPa, Constant-volume piezometry, x1 = 0.3023 | 918.19 | 911.52 | 904.74
75000 kPa, Constant-volume piezometry, x1 = 0.4045 | 898.01 | 891.74 | 884.67
75000 kPa, Constant-volume piezometry, x1 = 0.4827 | 886.19 | 880.7 | 873.35
75000 kPa, Constant-volume piezometry, x1 = 0.5344 | – | 873.92 | 866.45
75000 kPa, Constant-volume piezometry, x1 = 0.6029 | – | – | 859.03
100000 kPa, Constant-volume piezometry, x1 = 0.0248 | 1022.28 | 1022.71 | 1019.69
100000 kPa, Constant-volume piezometry, x1 = 0.04241 | 1014.85 | 1014.15 | –
100000 kPa, Constant-volume piezometry, x1 = 0.05887 | 1009.82 | 1007.36 | –
100000 kPa, Constant-volume piezometry, x1 = 0.08929 | 999.16 | 993.91 | –
100000 kPa, Constant-volume piezometry, x1 = 0.1125 | 988.91 | 983.36 | –
100000 kPa, Constant-volume piezometry, x1 = 0.1566 | 970.36 | 964.36 | –
100000 kPa, Constant-volume piezometry, x1 = 0.208 | 953.46 | 947.22 | –
100000 kPa, Constant-volume piezometry, x1 = 0.3023 | 927.69 | 921.12 | –
100000 kPa, Constant-volume piezometry, x1 = 0.4045 | 907.4 | 901.88 | –
100000 kPa, Constant-volume piezometry, x1 = 0.4827 | 895.03 | 890.44 | –
100000 kPa, Constant-volume piezometry, x1 = 0.5344 | – | 883.95 | –
